Source: publication PMC8694143 (Microbiology Spectrum, 2021)
Values belong to the substance of their own block, whether it stands above or below them. No end group written: not given here.

Experiments:
[1] = tested on: M. luteus ATCC 4698; assay: MIC determination in broth; type: cell-based, Micrococcus luteus; conditions: cation-adjusted MH broth, ~10^5 CFU/mL, 30°C, 48 h
Method: (§1) M. luteus ATCC 4698, S. aureus ATCC 29213, a panel of 7 MRSA (ATCC MP-2) strains, which includes ATCC BAA-41, BAA-42, BAA-44, BAA-1683, BAA-2094, BAA-2313, and 33592, and a series of additional bacterial isolates from human and veterinary cases were used in this study (Table S6). Bacterial strains were routinely grown in lysogeny broth (LB: 10 g/L tryptone, 5 g/L yeast extract, 10 g/L NaCl) at 30°C (M. luteus) or 37°C (Staphylococcus spp.) prior to use in specific experiments described below.
(§2) The MICs were measured for bioactive peptides identified from the initial screen. Cation-adjusted Mueller-Hinton (MH) broth was used as the growth medium for MIC determination experiments. Bacterial cultures were diluted to an OD of 5 × 10^−4 (∼10^5 CFU/mL) in 200 μL MH broth mixed with peptides in a 2-fold dilution series arrayed in 96-well plates. Plates were incubated without shaking at 30 or 37°C depending on the organism.

[2] = tested on: S. aureus; assay: MIC of STIP3-1 alanine variants in liquid broth; type: cell-based, Staphylococcus aureus; conditions: for Activity against S. aureus in nutrient broth: at 200 μg/mL
Method: The MICs were measured for bioactive peptides identified from the initial screen. […] […] Plates were incubated without shaking at 30 or 37°C depending on the organism.

[3] = tested on: MRSA ATCC BAA-42; assay: MIC determination in broth; type: cell-based, Staphylococcus aureus; conditions: STIP3 variants, highest conc. tested 100 μg/mL; cation-adjusted MH broth, ~10^5 CFU/mL, 2-fold dilution series, 37°C, 16 h
Method: as §1, §2

[4] = tested on: MRSA ATCC BAA-41; assay: MIC determination in broth; type: cell-based, Staphylococcus aureus; conditions: STIP3 variants, highest conc. tested 100 μg/mL; cation-adjusted MH broth, ~10^5 CFU/mL, 2-fold dilution series, 37°C, 16 h
Method: as §1, §2

[5] = tested on: S. aureus ATCC 29213; assay: MIC determination in broth; type: cell-based, Staphylococcus aureus; conditions: STIP3 variants, highest conc. tested 100 μg/mL; cation-adjusted MH broth, ~10^5 CFU/mL, 2-fold dilution series, 37°C, 16 h
Method: as §1, §2

[6] = tested on: MRSA ATCC 33592; assay: MIC determination in broth; type: cell-based, Staphylococcus aureus; conditions: Table S5; STIP3 variants, highest conc. tested 100 μg/mL; cation-adjusted MH broth, ~10^5 CFU/mL, 2-fold dilution series, 37°C, 16 h
Method: as §1, §2

[7] = tested on: MRSA ATCC BAA-44; assay: MIC determination in broth; type: cell-based, Staphylococcus aureus; conditions: STIP3 variants, highest conc. tested 100 μg/mL; cation-adjusted MH broth, ~10^5 CFU/mL, 2-fold dilution series, 37°C, 16 h
Method: as §1, §2

[8] = tested on: MRSA ATCC BAA-2094; assay: MIC determination in broth; type: cell-based, Staphylococcus aureus; conditions: STIP3 variants, highest conc. tested 100 μg/mL; cation-adjusted MH broth, ~10^5 CFU/mL, 2-fold dilution series, 37°C, 16 h
Method: as §1, §2

[9] = tested on: MRSA ATCC BAA-1683; assay: MIC determination in broth; type: cell-based, Staphylococcus aureus; conditions: STIP3 variants, highest conc. tested 100 μg/mL; cation-adjusted MH broth, ~10^5 CFU/mL, 2-fold dilution series, 37°C, 16 h
Method: as §1, §2

[10] = tested on: MRSA ATCC BAA-2313; assay: MIC determination in broth; type: cell-based, Staphylococcus aureus; conditions: STIP3 variants, highest conc. tested 100 μg/mL; cation-adjusted MH broth, ~10^5 CFU/mL, 2-fold dilution series, 37°C, 16 h
Method: as §1, §2

[11] = tested on: SspA; assay: SspA protease resuspended at 2 mg/mL in 100 mM HEPES (pH 7.8); conditions: 37°C, up to 5 h

Substance: TVGGLAKWILDTVKKFA [V6A]
MIC, M. luteus [1]: 50 µg/mL

Substance: TVGGLVKAILDTVKKFA [W8A]
MIC, M. luteus [1]: 100 µg/mL

Substance: TVGGLVKWILDAVKKFA [T12A]
MIC, M. luteus [1]: 12.5 µg/mL | MIC, S. aureus (alanine substituted STIP3-1, liquid broth) ([2]; Table S4, maximum concentration tested 200 μg/mL, strain not given): 100 µg/mL | Activity against S. aureus in nutrient broth [2]: maintained activity

Substance: TVGGLVKWILDTAKKFA [V13A]
MIC, M. luteus [1]: 50 µg/mL | Activity against S. aureus in nutrient broth [2]: maintained activity

Substance: TVKVLVKWILKVVAKFA [STIP3-26, rationally designed STIP3-1 variant]
MIC, S. aureus ATCC BAA 42 (SCCmec VI) [3]: > (The > symbol indicates that no inhibition was observed at 100 μg/mL for the STIP3 variants) | MIC, S. aureus ATCC BAA 41 (SCCmec II) [4]: > (The > symbol indicates that no inhibition was observed at 100 μg/mL for the STIP3 variants) | MIC, S. aureus ATCC 29213 [5]: > (The > symbol indicates that no inhibition was observed at 100 μg/mL for the STIP3 variants) | MIC, S. aureus ATCC 33592 (SCCmec III) [6]: > (The > symbol indicates that no inhibition was observed at 100 μg/mL for the STIP3 variants) | MIC, S. aureus ATCC BAA 44 (SCCmec I) [7]: > (The > symbol indicates that no inhibition was observed at 100 μg/mL for the STIP3 variants) | MIC, S. aureus ATCC BAA 2094 (SCCmec V) [8]: > (The > symbol indicates that no inhibition was observed at 100 μg/mL for the STIP3 variants) | MIC, S. aureus ATCC BAA 1683 (SCCmec IV) [9]: > (The > symbol indicates that no inhibition was observed at 100 μg/mL for the STIP3 variants) | MIC, S. aureus ATCC BAA 2313 (SCCmec XI) [10]: > (The > symbol indicates that no inhibition was observed at 100 μg/mL for the STIP3 variants)

Substance: TVRALVKWILRTVAKFA [STIP3-20, rationally designed STIP3-1 variant]
MIC, S. aureus ATCC BAA 42 (SCCmec VI) [3]: 25 µg/mL | MIC, S. aureus ATCC BAA 41 (SCCmec II) [4]: 12.5 µg/mL | MIC, S. aureus ATCC 29213 [5]: 25 µg/mL | MIC, S. aureus ATCC 33592 (SCCmec III) [6]: 25 µg/mL | MIC, S. aureus ATCC BAA 44 (SCCmec I) [7]: 25 µg/mL | MIC, S. aureus ATCC BAA 2094 (SCCmec V) [8]: 25 µg/mL | MIC, S. aureus ATCC BAA 1683 (SCCmec IV) [9]: 25 µg/mL | MIC, S. aureus ATCC BAA 2313 (SCCmec XI) [10]: 50 µg/mL

Substance: TVRALVRWILRTVARFA [STIP3-23, rationally designed STIP3-1 variant]
MIC, S. aureus ATCC BAA 42 (SCCmec VI) [3]: 50 µg/mL | MIC, S. aureus ATCC BAA 41 (SCCmec II) [4]: 6.25 µg/mL | MIC, S. aureus ATCC 29213 [5]: 25 µg/mL | MIC, S. aureus ATCC 33592 (SCCmec III) [6]: 25 µg/mL | MIC, S. aureus ATCC BAA 44 (SCCmec I) [7]: 25 µg/mL | MIC, S. aureus ATCC BAA 2094 (SCCmec V) [8]: 50 µg/mL | MIC, S. aureus ATCC BAA 1683 (SCCmec IV) [9]: 25 µg/mL | MIC, S. aureus ATCC BAA 2313 (SCCmec XI) [10]: 25 µg/mL

Substance: TVXALVXWILXTVAXFA [STIP3-22, rationally designed STIP3-1 variant with L-ornithine]
MIC, S. aureus ATCC BAA 42 (SCCmec VI) [3]: 25 µg/mL | MIC, S. aureus ATCC BAA 41 (SCCmec II) [4]: 25 µg/mL | MIC, S. aureus ATCC 29213 [5]: 25 µg/mL | MIC, S. aureus ATCC 33592 (SCCmec III) [6]: 25 µg/mL | MIC, S. aureus ATCC BAA 44 (SCCmec I) [7]: 25 µg/mL | MIC, S. aureus ATCC BAA 2094 (SCCmec V) [8]: 25 µg/mL | MIC, S. aureus ATCC BAA 1683 (SCCmec IV) [9]: 25 µg/mL | MIC, S. aureus ATCC BAA 2313 (SCCmec XI) [10]: 100 µg/mL

not cleaved [11]: no SspA cleavage was observed
Substance: f-MTKDIVETVGGLVKWILDTVKKFA
